In ChEMBL document CHEMBL1158327, “Four new clerodane diterpenes from the leaves of Casearia guianensis which inhibit the interaction of leukocyte function antigen 1 with intercellular adhesion molecule 1” (J Nat Prod, 1997):
The source made the active and inactive calls. No cut-off for these calls is given here.

Columns and labels:
[1] = target: Intercellular adhesion molecule (ICAM-1), Integrin alpha-L/beta-2 (Homo sapiens, UniProt P05107+P05362+P20701); experiment: (§1) Inhibition of LFA1 binding to full length soluble ICAM1 by gamma scintillation counter; type: protein-complex assay
Intercellular adhesion molecule (ICAM-1), Integrin alpha-L/beta-2, sequence (P20701 whole entry): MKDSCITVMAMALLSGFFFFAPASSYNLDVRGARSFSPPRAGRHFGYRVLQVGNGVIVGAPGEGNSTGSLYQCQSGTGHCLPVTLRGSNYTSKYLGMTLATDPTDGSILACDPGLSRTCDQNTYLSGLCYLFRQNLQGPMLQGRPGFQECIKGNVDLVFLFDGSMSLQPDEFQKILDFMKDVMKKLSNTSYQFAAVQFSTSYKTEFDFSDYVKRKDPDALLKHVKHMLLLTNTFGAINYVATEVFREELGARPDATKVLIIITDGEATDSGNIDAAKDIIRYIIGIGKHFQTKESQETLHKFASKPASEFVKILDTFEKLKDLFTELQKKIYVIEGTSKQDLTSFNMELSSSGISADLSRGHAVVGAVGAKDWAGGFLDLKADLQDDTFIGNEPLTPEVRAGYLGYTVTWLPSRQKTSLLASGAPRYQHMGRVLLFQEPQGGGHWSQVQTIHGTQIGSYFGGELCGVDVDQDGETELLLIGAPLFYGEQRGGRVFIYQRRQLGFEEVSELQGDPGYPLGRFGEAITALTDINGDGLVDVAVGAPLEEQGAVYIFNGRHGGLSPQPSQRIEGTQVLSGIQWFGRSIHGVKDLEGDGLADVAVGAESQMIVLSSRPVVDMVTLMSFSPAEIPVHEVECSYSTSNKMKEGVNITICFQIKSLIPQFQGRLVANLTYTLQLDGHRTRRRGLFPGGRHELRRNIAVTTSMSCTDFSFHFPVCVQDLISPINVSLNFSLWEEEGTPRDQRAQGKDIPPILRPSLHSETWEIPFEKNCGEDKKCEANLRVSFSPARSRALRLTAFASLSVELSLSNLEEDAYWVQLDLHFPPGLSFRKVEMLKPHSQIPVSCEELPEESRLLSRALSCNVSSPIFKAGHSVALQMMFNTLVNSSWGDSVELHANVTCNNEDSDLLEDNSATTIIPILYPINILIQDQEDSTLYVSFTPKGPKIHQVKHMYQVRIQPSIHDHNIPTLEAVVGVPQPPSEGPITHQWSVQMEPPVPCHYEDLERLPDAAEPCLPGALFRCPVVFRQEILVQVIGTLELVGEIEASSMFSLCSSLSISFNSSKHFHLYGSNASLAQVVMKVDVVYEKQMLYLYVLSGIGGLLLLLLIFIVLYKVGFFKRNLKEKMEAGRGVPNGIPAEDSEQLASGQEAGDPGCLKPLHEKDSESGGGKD
Intercellular adhesion molecule (ICAM-1), Integrin alpha-L/beta-2, sequence (P05362 whole entry): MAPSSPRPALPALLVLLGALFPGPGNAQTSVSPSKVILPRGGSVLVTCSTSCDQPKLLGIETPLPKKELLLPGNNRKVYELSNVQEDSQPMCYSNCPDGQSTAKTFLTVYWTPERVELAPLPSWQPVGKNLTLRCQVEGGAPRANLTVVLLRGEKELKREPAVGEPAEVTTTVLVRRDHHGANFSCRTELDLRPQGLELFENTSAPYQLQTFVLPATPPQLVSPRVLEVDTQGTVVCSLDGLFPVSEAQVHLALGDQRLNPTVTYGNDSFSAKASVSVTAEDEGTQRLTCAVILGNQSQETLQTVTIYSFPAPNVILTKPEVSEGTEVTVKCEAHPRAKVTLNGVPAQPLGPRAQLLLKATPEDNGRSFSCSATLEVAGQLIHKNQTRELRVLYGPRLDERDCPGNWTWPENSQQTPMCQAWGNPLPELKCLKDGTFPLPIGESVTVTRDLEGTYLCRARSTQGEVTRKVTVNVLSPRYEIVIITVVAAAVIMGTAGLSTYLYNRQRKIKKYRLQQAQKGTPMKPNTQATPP
Intercellular adhesion molecule (ICAM-1), Integrin alpha-L/beta-2, sequence (P05107 whole entry): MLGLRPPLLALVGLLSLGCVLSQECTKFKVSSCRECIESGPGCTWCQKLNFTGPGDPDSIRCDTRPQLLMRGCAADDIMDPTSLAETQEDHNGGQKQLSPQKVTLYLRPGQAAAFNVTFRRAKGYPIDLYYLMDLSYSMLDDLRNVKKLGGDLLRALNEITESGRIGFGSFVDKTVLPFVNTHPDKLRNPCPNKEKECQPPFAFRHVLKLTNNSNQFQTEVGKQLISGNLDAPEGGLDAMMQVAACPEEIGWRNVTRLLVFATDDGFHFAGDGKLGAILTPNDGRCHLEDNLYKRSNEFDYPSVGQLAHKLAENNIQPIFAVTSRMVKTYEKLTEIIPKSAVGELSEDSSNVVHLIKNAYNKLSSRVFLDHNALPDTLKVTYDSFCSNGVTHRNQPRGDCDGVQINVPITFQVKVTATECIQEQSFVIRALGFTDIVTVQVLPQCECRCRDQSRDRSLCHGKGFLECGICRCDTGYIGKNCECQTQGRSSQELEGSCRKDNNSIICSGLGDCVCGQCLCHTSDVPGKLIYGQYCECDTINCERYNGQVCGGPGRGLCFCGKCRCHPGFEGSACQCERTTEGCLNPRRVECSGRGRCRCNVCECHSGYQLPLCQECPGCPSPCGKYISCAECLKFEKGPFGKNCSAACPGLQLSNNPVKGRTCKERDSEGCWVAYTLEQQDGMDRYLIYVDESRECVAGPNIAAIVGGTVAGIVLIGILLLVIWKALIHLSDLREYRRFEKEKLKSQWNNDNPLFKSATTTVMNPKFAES

[2] = target: Intercellular adhesion molecule (ICAM-1), Integrin alpha-L/beta-2 (Homo sapiens) (UniProt P20701+P05362+P05107); experiment: as §1; type: protein-complex assay

IC50 [1]	Activity [2]	SMILES
50 µM	–	C=C/C(C)=C/C[C@]1(C)[C@H]2C[C@@H](OC(=O)/C(C)=C/C)C[C@@H]3[C@H](OC(C)=O)OC(OC(C)=O)[C@@]32[C@H](O)C[C@@H]1C (some centres undefined) [CASEARINOL A]
–	Active	C=C/C(C)=C/C[C@]1(C)[C@H]2C[C@@H](OC(=O)C(C)CC)C[C@@H]3[C@H](OC(C)=O)OC(OC(C)=O)[C@@]32[C@H](O)C[C@@H]1C (some centres undefined)
–	Active	C=C/C(C)=C\C[C@]1(C)[C@H]2C[C@@H](OC(C)=O)C[C@@H]3[C@H](OC(C)=O)O[C@H](OC(C)=O)[C@@]32C(=O)C[C@@H]1C
–	Active	C=C/C(C)=C/C[C@]1(C)[C@H]2C[C@@H](OC(C)=O)C[C@@H]3[C@H](OC(C)=O)O[C@H](OC(C)=O)[C@@]32C(=O)C[C@@H]1C
